In patent US20250042891A1, “Compound containing structure of a heteroaromatic ring, pharmaceutical composition thereof and application thereof” (SHANGHAI YINGLI PHARMACEUTICAL CO., LTD, priority 2023, published 2025):

How the values were obtained:
PARG (389-976) = PARG (389-976) (Homo sapiens (Human), UniProt Q86W56); assay: PARG enzyme inhibition assay (TR-FRET); type: biochemical
Description: PARG in vitro assays were conducted in standard 384-well plates in a total volume of 15 μL. 5 μL of PARG (389-976) (manufactured by Chempartner Chemical Co., Ltd.) in buffer (50 mM Tris-HCL 7.5, 30 mM KCl, 1 mM EDTA, 3 mM DTT, tween-20 0.01%, BSA 0.025%) was added at a final concentration of 1.5 pM to the 384-well plates containing the compounds to be tested, which was incubated for 30 min at room temperature. To the above mixture was added 5 μL Bio PARylated His-TEV-PARP1(2-1014) substrate (manufactured by Chempartner Chemical Co., Ltd.) at a final concentration of 12 nM, after addition, the resulting mixture was incubated for 30 minutes at room temperature. Then to the mixture was added detection reagent (5 μL) which was buffered with 50 mM Tris-HCL 7.5, 30 mM KCl, 1 mM EDTA, 3 mM DTT, tween-20 0.01%, BSA 0.025%, and consisted of 3 μM of compound PDD00017273 and 9 nM Mab anti-6HIS XL665 (Cisbio: 61HISXLA) and 0.9 nM streptavidin affinity terbium cryptate (Cisbio:610SATLA), all at 3× working concentrations (final concentrations of 1 μM, 3 nM and 0.3 nM, respectively). After 120 min incubation in the dark at room temperature, TR-FRET signals were measured at Ex 340 and Em 665 and Em 615. The ratio for each well was calculated as Em 665/Em 615 and the compound inhibition rate was calculated based on the obtained data.

HCC1395 = assay: CTG assay for proliferation inhibition of cell lines; type: cell-based; conditions: HCC1395, 7 days, CellTiter Glo
Description: (§1) The assay was conducted on either 384-well plates or 96-well plates. The procedures are as follows:
(§2) The cell suspensions were added to 384- or 96-well plates (384-well plate: 50 μL; 96-well plate: 100 μL) except for peripheral wells. The plates were incubated in a carbon dioxide incubator overnight, HCC1395, HCC1428 and NCI-H460 were placed in a carbon dioxide incubator of 5%, […] overnight. Prepared compounds (10 concentration gradients by serial 3-fold dilution) were added to the wells using the HPD300 micro-dosing instrument. The cell plates were incubated in a carbon dioxide incubator for 7 days. HCC1395, HCC1428 and NCI-H460 were incubated in a 5%, 37° CO2 incubator. On the day of plate measurement, 384- or 96-well plates were first equilibrated at room temperature for 10-30 minutes, then to the 384- or 96-well plate was added CellTiter Glo reagent (384-well plate: 25 μL; 96-well plate: 100 μL), shaken for 10 minutes away from light, and incubated for 10 minutes. The incubated plates were placed into Victor NIVO reader plates, and the pharmacodynamic inhibition curves were plotted and IC50 values were calculated using XLFit.

HCC1428 = assay: as above; type: cell-based; conditions: HCC1428, 7 days, CellTiter Glo
Description: as §1, §2

[1] = class symbol, Bio PARylated His-TEV-PARP1 substrate, TR-FRET
[2] = numeric value in parentheses under the class symbol

PARG (389-976), sequence (Q86W56 389-976): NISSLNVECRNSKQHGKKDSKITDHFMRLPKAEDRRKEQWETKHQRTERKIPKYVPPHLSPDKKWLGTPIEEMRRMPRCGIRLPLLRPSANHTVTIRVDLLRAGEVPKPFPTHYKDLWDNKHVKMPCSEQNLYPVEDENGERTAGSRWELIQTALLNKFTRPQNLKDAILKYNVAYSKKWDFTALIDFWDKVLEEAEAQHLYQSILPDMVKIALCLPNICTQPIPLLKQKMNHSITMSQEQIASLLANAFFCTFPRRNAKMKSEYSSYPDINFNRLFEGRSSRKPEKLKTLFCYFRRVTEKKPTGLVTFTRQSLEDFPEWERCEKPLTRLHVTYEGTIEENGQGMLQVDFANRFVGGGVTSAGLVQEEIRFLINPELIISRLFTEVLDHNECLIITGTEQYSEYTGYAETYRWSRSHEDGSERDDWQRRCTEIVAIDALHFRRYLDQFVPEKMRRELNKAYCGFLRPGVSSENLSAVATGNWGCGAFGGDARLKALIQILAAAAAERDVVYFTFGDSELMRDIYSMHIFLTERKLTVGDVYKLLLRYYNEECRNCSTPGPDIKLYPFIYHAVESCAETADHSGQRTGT

Row | Structure (SMILES) | IC50 (PARG (389-976); [1]) | IC50 (HCC1395) | IC50 (HCC1428) | IC50 (PARG (389-976); [2])
1 | CC(C)S(=O)(=O)N1CCC(c2cc(S(=O)(=O)NC3(C#N)CC3)cc3c(-c4nnc(C(F)F)s4)nn(C)c23)=C(C(=O)O)C1 [Compound 34] | 10 to 100 nM | – | – | –
2 | CC(C)S(=O)(=O)N1CC=C(c2cc(S(=O)(=O)NC3(C#N)CC3)cc3c2nnn3-c2nnc(C(F)(F)F)s2)CC1 [Compound 80] | 10 to 100 nM | – | – | –
3 | CC(C)S(=O)(=O)N1CCC(c2cc(S(=O)(=O)NC3(C#N)CC3)cc3c(-c4nnc(C(F)(F)F)s4)nn(C)c23)=C(CN(C)C)C1 [Compound 74] | 1 to 10 nM | 0.156 µM | 0.0621 µM | –
4 | CC(C)S(=O)(=O)N1CCC(O)(c2cc(S(=O)(=O)NC3(C#N)CC3)cc3c(-c4nnc(C(F)F)s4)n[nH]c23)CC1 [Compound 27] | 1 to 10 nM | – | – | –
5 | CC(C)S(=O)(=O)N1CCC(c2cc(S(=O)(=O)NC3(C#N)CC3)cc3c(-c4nnc(C(F)(F)F)s4)nn(C)c23)=C(C(N)=O)C1 [Compound 55] | < 1 nM | 0.836 µM | 0.208 µM | –
6 | CC(C)S(=O)(=O)N1CCC(c2cc(S(=O)(=O)NC3(C#N)CC3)cc3c(-c4nnc(C(F)F)s4)nn(C)c23)=C(F)C1 [Compound 68] | < 1 nM | – | 0.47 µM | –
7 | CC(C)S(=O)(=O)N1CCC(O)(c2cc(S(=O)(=O)NC3(C#N)CC3)cc3c(-c4nnc(C(F)F)s4)nn(C)c23)CC1 [Compound 28] | 1 to 10 nM | – | – | –
8 | CC(C)S(=O)(=O)N1Cc2cn(-c3cc(S(=O)(=O)NC4(C#N)CC4)cc4c(-c5nnc(C(F)F)s5)nn(C)c34)nc2C1 [Compound 52] | 1 to 10 nM | 1.38 µM | 1.06 µM | –
9 | CC(C)S(=O)(=O)N1CC=C(c2cc(S(=O)(=O)NC3(C#N)CC3)cc3c(-c4nnc(C(F)F)s4)csc23)CC1 [Compound 10] | 1 to 10 nM | – | – | –
10 | CC(C)S(=O)(=O)N1CC=C(c2cc(S(=O)(=O)NC3(C#N)CC3)cc3c(-c4nnc(C(F)F)s4)nn(C)c23)C(F)(F)C1 [Compound 67] | < 1 nM | – | 0.203 µM | –
11 | Cn1nc(-c2nnc(C(F)(F)F)s2)c2cc(S(=O)(=O)NC3(C#N)CC3)cc(C3=CCN(S(=O)(=O)c4cccnc4)CC3)c21 [Compound 51] | 1 to 10 nM | – | 2.52 µM | –
12 | Cc1cc(Cn2c(=O)n(Cc3cnc(C)s3)c(=O)c3cc(S(=O)(=O)NC4(C)CC4)ccc32)n(C)n1 [PDD 00017273, reference compound] | 1 to 10 nM | – | – | –
13 | CC(C)S(=O)(=O)N1CCC(c2cc(S(=O)(=O)NC3(C#N)CC3)cc3c(-c4nnc(C(F)F)s4)nn(C)c23)=C(CN(C)C)C1 [Compound 71] | < 1 nM | 0.308 µM | 0.342 µM | –
14 | CC(C)Sc1ncc(-c2cc(S(=O)(=O)NC3(C#N)CC3)cc3c(-c4nnc(C(F)F)s4)nn(C)c23)cn1 [Compound 41] | 100 to 1000 nM | – | – | –
15 | CC(C)S(=O)(=O)N1CCN(c2cc(S(=O)(=O)NC3(C#N)CC3)cc3c2cnn3-c2nnc(C(F)F)s2)CC1 [Compound 8] | 1 to 10 nM | – | – | –
16 | CC(C)S(=O)(=O)N1CC=C(c2cc(S(=O)(=O)NC3(C#N)CC3)cc3c2ccn3-c2nnc(C(F)(F)F)s2)CC1 [Compound 65] | 1 to 10 nM | – | – | –
17 | CC(C)CS(=O)(=O)N1CC=C(c2cc(S(=O)(=O)NC3(C#N)CC3)cc3c(-c4nnc(C(F)F)s4)nn(C)c23)CC1 [Compound 13] | 1 to 10 nM | – | – | –
18 | CC(C)S(=O)(=O)N1CC=C(c2cc(S(=O)(=O)NC3(C#N)CC3)cc3c(-c4nnc(C(F)(F)F)s4)nn(Cc4ccccc4)c23)CC1 [Compound 62] | 10 to 100 nM | – | – | –
19 | CC(C)S(=O)(=O)N1CC=C(c2cc(S(=O)(=O)NC3(C(N)=O)CC3)cc3c(-c4nnc(C(F)F)s4)nn(C)c23)CC1 [Compound 17] | 1 to 10 nM | – | – | –
20 | COCCn1nc(-c2nnc(C(F)F)s2)c2cc(S(=O)(=O)NC3(C#N)CC3)cc(N3CCN(S(=O)(=O)C(C)C)CC3)c21 [Compound 2] | < 1 nM | – | 0.413 µM | 0.27 nM
21 | Cn1nc(-c2nnc(C(F)F)s2)c2cc(S(=O)(=O)NC3(C#N)CC3)cc(C3=CCN(S(=O)(=O)C4CC4)CC3)c21 [Compound 11] | < 1 nM | – | – | –
22 | CC(C)S(=O)(=O)N1CCC(c2cc(S(=O)(=O)NC3(C#N)CC3)cc3c(-c4nnc(C(F)(F)F)s4)nn(C)c23)=C(CO)C1 [Compound 73] | < 1 nM | 0.0462 µM | 0.0576 µM | –

Row | Structure (SMILES) | IC50 (PARG (389-976); [1]) | IC50 (HCC1395) | IC50 (HCC1428) | IC50 (PARG (389-976); [2])
23 | CC(C)S(=O)(=O)c1ccc(-c2cc(S(=O)(=O)NC3(C#N)CC3)cc3c(-c4nnc(C(F)(F)F)s4)nn(C)c23)nc1 [Compound 49] | 100 to 1000 nM | – | – | –
24 | CC(C)S(=O)(=O)N1CCN(c2c(F)c(S(=O)(=O)NC3(C#N)CC3)cc3c(-c4nnc(C(F)(F)F)s4)nn(C)c23)CC1 [Compound 56] | < 1 nM | 0.0475 µM | 0.0472 µM | –
25 | CC(C)SC1CC=C(c2cc(S(=O)(=O)NC3(C#N)CC3)cc3c(-c4nnc(C(F)F)s4)nn(C)c23)CC1 (centres unmarked) [Compound 29] | 10 to 100 nM | – | – | –
26 | Cn1nc(-c2nnc(C(F)(F)F)s2)c2cc(S(=O)(=O)NC3(C#N)CC3)cc(C3=CCN(S(=O)(=O)c4ccccc4)CC3)c21 [Compound 50] | 10 to 100 nM | – | 2.33 µM | –
27 | CC(C)[S+]([O-])c1ncc(-c2cc(S(=O)(=O)NC3(C#N)CC3)cc3c(-c4nnc(C(F)F)s4)nn(C)c23)cn1 (centres unmarked) [Compound 42] | 1 to 10 nM | – | – | –
28 | CC(C)S(=O)(=O)N1CCC(c2cc(S(=O)(=O)NC3(C#N)CC3)cc3c(-c4nnc(C(F)(F)F)s4)nn(C)c23)=C(C(=O)O)C1 [Compound 54] | 10 to 100 nM | – | – | –
29 | CC1=C(c2cc(S(=O)(=O)NC3(C#N)CC3)cc3c(-c4nnc(C(F)(F)F)s4)nn(C)c23)CCN(S(=O)(=O)C(C)C)C1 [Compound 75] | < 1 nM | 0.0352 µM | – | –
30 | CC(C)S(=O)(=O)c1ccc(-c2cc(S(=O)(=O)NC3(C#N)CC3)cc3c(-c4nnc(C(F)F)s4)nn(C)c23)nc1 [Compound 63] | 100 to 1000 nM | – | – | –
31 | CN(C)S(=O)(=O)N1CCN(c2cc(S(=O)(=O)NC3(C#N)CC3)cc3c(-c4nnc(C(F)F)s4)nn(C)c23)CC1 [Compound 3] | 1 to 10 nM | 0.386 µM | – | 1.64 nM
32 | CC(C)S(=O)(=O)N1CCN(c2cc(S(=O)(=O)NC3(C#N)CC3)cc3c(-c4nnc(C(F)(F)F)s4)nn(C)c23)C=N1 [Compound 85] | < 1 nM | – | – | –
33 | CC(C)[S+]([O-])c1ccc(-c2cc(S(=O)(=O)NC3(C#N)CC3)cc3c(-c4nnc(C(F)(F)F)s4)nn(C)c23)cn1 (centres unmarked) [Compound 46] | < 1 nM | – | 1.7 µM | –
34 | CC(C)S(=O)(=O)N1CC=C(c2cc(S(=O)(=O)NC3(C#N)CC3)cc3c(-c4noc(C(F)(F)F)n4)nn(C)c23)CC1 [Compound 53] | < 1 nM | 0.392 µM | 0.207 µM | –
35 | COCCn1nc(-c2nnc(C(F)F)s2)c2cc(S(=O)(=O)NC3(C#N)CC3)cc(C3=CCN(S(=O)(=O)C(C)C)CC3)c21 [Compound 1] | < 1 nM | – | – | 0.2 nM
36 | CC(C)S(=O)(=O)N1CC=C(c2cc(S(=O)(=O)NC3(C#N)CC3)cc3c(-c4nnc(C(F)F)o4)nn(C)c23)CC1 [Compound 6] | < 1 nM | 0.442 µM | – | –
37 | CC(C)S(=O)(=O)c1ccc(-c2cc(S(=O)(=O)NC3(C#N)CC3)cc3c(-c4nnc(C(F)(F)F)s4)nn(C)c23)cn1 [Compound 47] | 1 to 10 nM | – | 1.91 µM | –
38 | CC(C)S(=O)(=O)N1CCC(c2cc(S(=O)(=O)NC3(C#N)CC3)cc3c(-c4nnc(C(F)(F)F)s4)nn(C)c23)=C(C#N)C1 [Compound 64] | < 1 nM | – | 0.0882 µM | –
39 | CC(C)S(=O)(=O)N1CC=C(c2cc(S(=O)(=O)NC3(C#N)CC3)cc3c(-c4cc(C(F)(F)F)nn4C)nn(C)c23)CC1 [Compound 81] | 100 to 1000 nM | – | – | –
40 | CC(C)S(=O)(=O)N1CCC=C(c2cc(S(=O)(=O)NC3(C#N)CC3)cc3c(-c4nnc(C(F)F)s4)nn(C)c23)C1 [Compound 4] | 1 to 10 nM | – | – | –
41 | CC(C)S(=O)(=O)N1CC=C(c2cc(S(=O)(=O)NC3(C(N)=O)CC3)cc3c(-c4nnc(C(F)(F)F)s4)nn(C)c23)CC1 [Compound 57] | 10 to 100 nM | – | – | –
42 | CC(C)S(=O)(=O)c1ncc(-c2cc(S(=O)(=O)NC3(C#N)CC3)cc3c(-c4nnc(C(F)F)s4)nn(C)c23)cn1 [Compound 43] | 100 to 1000 nM | – | – | –
43 | CC(C)S(=O)(=O)N1CC=C(c2cc(S(=O)(=O)NC3(C#N)CC3)cc3c(-c4nnc(C(F)F)s4)nn(CC(N)=O)c23)CC1 [Compound 66] | 1 to 10 nM | – | – | –
